According to patent publication US11247965B2 (VenatoRx Pharmaceuticals, Inc., priority 2017, dated 2022):

Experiments:
[1] = tested on: HBV replication in HepAD38 cells; assay: Anti-HBV activity in HepAD38 cells, extracellular HBV DNA by QPCR; assay type: cell-based, HBV (genotype D, serotype ayw); details: Hepatitis B virus, HePAD38, 168 h, read-out: Anti-HBV EC50, HepAD38 cells, extracellular HBV DNA by QPCR, 7 days of incubation
Procedure: The anti-HBV activity of the Capsid Assembly Modulators (CAMs) was evaluated in a cell based assay utilizing the human hepatoma cell line HepAD38 (Ladner, S K., et al., 1998). HepAD38 cells were derived from the parental line, HepG2, that were stably transfected with a construct containing an HBV genome (genotype D, serotype ayw) under the control of a tetracycline repressible CMV promoter. Upon removal of tetracycline, viral pre-genomic RNA (pgRNA) and mRNAs are expressed and infectious viral particles are assembled and secreted into the culture medium providing a reliable, robust system to measure multiple steps of the HBV life cycle. Disruption of capsid formation results in reduced levels of DNA-containing virus particles that are released into the culture supernatant. To quantify the effect of CAMs on HBV replication, we developed a sensitive QPCR-based assay that measures extracellular HBV DNA levels upon treatment of HepAD38 cells with various concentrations of test compounds.
HepAD38 cells were maintained in DMEM/F12 medium containing 10% FBS, 400 μg/mL G418 and 0.3 μg/mL tetracycline (tet+medium) to maintain repression of HBV replication. To evaluate each compound, HepAD38 cells were seeded into 24-well collagen coated culture plates (Corning BioCoat) at a density of 200,000 cells per well in 1 mL of tet+medium and allowed to adhere overnight at 37° C., 5% CO2 in a humidified incubator. The following day, test articles were subjected to half-logo serial dilutions, ranging from 30 μM to 10 nM, in 100% DMSO at 200× the desired final assay concentration. Tetracycline was removed from the cells by aspirating the tet+medium and washing the cells once with growth medium lacking tetracycline (tet-). Various concentrations of each compound were added to the appropriate wells (1:200 dilution) and the plates were returned to the incubator. Following 7 days of incubation, culture supernatants were harvested and HBV DNA levels were evaluated by QPCR and compared to the vehicle treated control wells (i.e. DMSO alone).
To quantify HBV DNA levels, cell culture supernatants were diluted 1:10 in sterile, nuclease-free water (Gibco). The diluted supernatants were subsequently added to a PCR master mix containing 1× Roche Light Cycler Master Mix, 0.5 μM forward primer, 0.5 μM reverse primer (Fwd:
0.2 μM Roche Universal Probe Library Probe 25. The volume was brought to 20 μL with nuclease-free water and amplification of the HBV target sequence was performed using a Roche LightCycler 480 QPCR instrument. PCR extended out to 45 cycles with each cycle consisting of a denaturation step at 95° C. for 10 sec., followed by an annealing step at 60° C. for 10 sec. and a brief extension step at 72° C. for 1 sec.
Extracellular HBV DNA levels, expressed in copies/mL, were determined by comparison to a standard curve (10^2-10^9 copies/mL) using the Roche LightCycler analysis software. These values were subsequently converted to percent inhibition of HBV replication by dividing the HBV DNA levels in the experimental samples with those obtained from the vehicle control (˜1-2×10^5 copies/mL). Potency, expressed as an EC50 (the effective concentration required to inhibit […] of HBV replication), was calculated from the dose-response curve using a 4-parameter non-linear regression analysis (GraphPad Prism). The nucleoside analog inhibitor entecavir was used as a positive control to validate each assay run. The EC50 value of entecavir in the HepAD38 assay was 0.5 nM, as previously reported in the literature.

[2] = In vitro cytotoxicity, MTT cell viability assay in HepG2 cells; assay type: cell-based; details: human, Cytotoxicity CC50
Procedure: To evaluate antiviral selectivity, the cytotoxic activity of each compound was determined using a standard cell viability assay performed on the parental HepG2 cell line. Cell viability was determined by measuring the conversion of 3-(4,5-dimethylthiazol-2-yl)-2,5-diphenyltetrazolium bromide (MTT) to the insoluble formazan salt crystal that occurs in live cells. Briefly, HepG2 cells were seeded in 96-well plates at a density of 20,000 cells per well in EMEM+10% FBS (complete growth medium) and allowed to adhere overnight in a 37° C., 5% CO2 humidified incubator. The next day, test agents were prepared by performing 8 half-log10 serial dilutions in 100% DMSO at 200× the final desired concentration in the assay. Compounds were tested over a range of concentrations from 30 μM to 1.0 nM in the assay. HepG2 cells were incubated in the presence of various concentrations of CAMs for 7 days in a 37° C., 5% CO2 humidified incubator. At the completion of the 7-day incubation period, MTT reagent was added to each well and the mixture was incubated for an additional 3-4 hours. At the completion of the incubation period, all wells were aspirated to remove the culture medium. The formazan crystals were solubilized from the cell monolayers with 100% DMSO. Plates were briefly mixed on an orbital shaker and absorbance was measured at 492 nm using a Perkin-Elmer EnVision multi-label plate reader. All absorbance values were converted to a percentage of the signal obtained from the vehicle treated controls. Absorbance values at 492 nm are directly proportional to the number of viable cells present in the sample. A CC50 value (cytotoxic concentration that results in loss of 50% cell viability) was calculated from the dose-response curve by 4-parameter, non-linear regression analysis using the GraphPad Prism software. The positive control compound, staurosporine, reduced the viability of HepG2 cells in a dose-dependent manner (CC50=100 nM).

SMILES	EC50 [1] [µM]	CC50 at 7 days [2] [µM]
O=C(Nc1ccc(F)cn1)c1ccc(Cl)c(C(F)(F)C(=O)N2CCC(O)CC2)c1 [Example 38, 4-chloro-3-(1,1-difluoro-2-(4-hydroxypiperidin-1-yl)-2-oxoethyl)-N-(5-fluoropyridin-2-yl)benzamide]	> 30	> 30
O=C(Nc1ccc(Cl)cc1)c1ccc(Cl)c(C(F)(F)C(=O)N2CCC(O)CC2)c1 [Example 39, 4-chloro-N-(4-chlorophenyl)-3-(1,1-difluoro-2-(4-hydroxypiperidin-1-yl)-2-oxoethyl)benzamide]	5 to 30	5 to 30
CN(C(=O)c1ccc(Cl)c(C(F)(F)C(=O)N2CCC(O)CC2)c1)c1ccc(Cl)cc1 [Example 40, 4-chloro-N-(4-chlorophenyl)-3-(1,1-difluoro-2-(4-hydroxypiperidin-1-yl)-2-oxoethyl)-N-methylbenzamide]	> 30	> 30
O=C(Nc1ccc(F)cc1Cl)c1ccc(Cl)c(C(F)(F)C(=O)N2CCC(O)CC2)c1 [Example 41, 4-chloro-N-(2-chloro-4-fluorophenyl)-3-(1,1-difluoro-2-(4-hydroxypiperidin-1-yl)-2-oxoethyl)benzamide]	5 to 30	> 30
O=C(Nc1ccc(F)c(F)c1)c1ccc(Cl)c(C(F)(F)C(=O)N2CCC(O)CC2)c1 [Example 42, 4-chloro-3-(1,1-difluoro-2-(4-hydroxypiperidin-1-yl)-2-oxoethyl)-N-(3,4-difluorophenyl)benzamide]	< 5	5 to 30
O=C(Nc1ccc(F)c(Br)c1)c1ccc(Cl)c(C(F)(F)C(=O)N2CCC(O)CC2)c1 [Example 43, N-(3-bromo-4-fluorophenyl)-4-chloro-3-(1,1-difluoro-2-(4-hydroxypiperidin-1-yl)-2-oxoethyl)benzamide]	< 5	5 to 30
Cc1cc(NC(=O)c2cnc(C(F)(F)C(=O)N3CCC(O)CC3)s2)ccc1F [Example 44, 2-(1,1-difluoro-2-(4-hydroxypiperidin-1-yl)-2-oxoethyl)-N-(4-fluoro-3-methylphenyl)thiazole-5-carboxamide]	> 30	> 30
CC(C)(CCO)NC(=O)C(F)(F)c1cc(C(=O)Nc2ccc(F)c(F)c2)ccc1F [Example 45, 3-(1,1-difluoro-2-((4-hydroxy-2-methylbutan-2-yl)amino)-2-oxoethyl)-N-(3,4-difluorophenyl)-4-fluorobenzamide]	< 5	5 to 30
CCN(CCCO)C(=O)C(F)(F)c1cc(C(=O)Nc2ccc(F)c(F)c2)ccc1F [Example 46, N-(3,4-difluorophenyl)-3-(2-(ethyl(3-hydroxypropyl)amino)-1,1-difluoro-2-oxoethyl)-4-fluorobenzamide]	5 to 30	> 30
CN(CCCO)C(=O)C(F)(F)c1cc(C(=O)Nc2ccc(F)c(F)c2)ccc1F [Example 47, 3-(1,1-difluoro-2-((3-hydroxypropyl)(methyl)amino)-2-oxoethyl)-N-(3,4-difluorophenyl)-4-fluorobenzamide]	5 to 30	> 30
O=C(Nc1ccc(F)c(F)c1)c1ccc(F)c(C(F)(F)C(=O)N2CCC(CO)CC2)c1 [Example 48, 3-(1,1-difluoro-2-(4-(hydroxymethyl)piperidin-1-yl)-2-oxoethyl)-N-(3,4-difluorophenyl)-4-fluorobenzamide]	< 5	5 to 30
O=C(Nc1ccc(F)c(F)c1)c1ccc(F)c(C(F)(F)C(=O)N2CCCC(CO)C2)c1 (stereo not drawn) [Example 49, 3-(1,1-difluoro-2-(3-(hydroxymethyl)piperidin-1-yl)-2-oxoethyl)-N-(3,4-difluorophenyl)-4-fluorobenzamide]	< 5	> 30
O=C(Nc1ccc(F)c(F)c1)c1ccc(F)c(C(F)(F)C(=O)Nc2ccncc2)c1 [Example 50, 3-(1,1-difluoro-2-oxo-2-(pyridin-4-ylamino)ethyl)-N-(3,4-difluorophenyl)-4-fluorobenzamide]	5 to 30	5 to 30
O=C(Nc1ccc(F)c(F)c1)c1ccc(F)c(C(F)(F)C(=O)NCc2ccncc2)c1 [Example 51, 3-(1,1-difluoro-2-oxo-2-((pyridin-4-ylmethyl)amino)ethyl)-N-(3,4-difluorophenyl)-4-fluorobenzamide]	< 5	> 30
CCCN(CCO)C(=O)C(F)(F)c1cc(C(=O)Nc2ccc(F)c(F)c2)ccc1F [Example 52, 3-(1,1-difluoro-2-((2-hydroxyethyl)(propyl)amino)-2-oxoethyl)-N-(3,4-difluorophenyl)-4-fluorobenzamide]	5 to 30	> 30
O=C(Nc1ccc(F)c(F)c1)c1ccc(F)c(C(F)(F)C(=O)NC[C@@H](O)CO)c1 [Example 53, (R)—N-(3,4-difluorophenyl)-3-(2-((2,3-dihydroxypropyl)amino)-1,1-difluoro-2-oxoethyl)-4-fluorobenzamide]	< 5	> 30
O=C(Nc1ccc(F)c(F)c1)c1ccc(F)c(C(F)(F)C(=O)NC[C@H](O)CO)c1 [Example 54, (S)—N-(3,4-difluorophenyl)-3-(2-((2,3-dihydroxypropyl)amino)-1,1-difluoro-2-oxoethyl)-4-fluorobenzamide]	< 5	> 30
CCN(CCO)C(=O)C(F)(F)c1cc(C(=O)Nc2ccc(F)c(F)c2)ccc1F [Example 55, N-(3,4-difluorophenyl)-3-(2-(ethyl(2-hydroxyethyl)amino)-1,1-difluoro-2-oxoethyl)-4-fluorobenzamide]	5 to 30	> 30
Cc1cc(NC(=O)c2ccc(Cl)c(C(F)(F)C(=O)N3CC[C@@H](O)[C@@H](O)C3)c2)ccc1F [Example 57, 4-chloro-3-(2-((3S,4R)-3,4-dihydroxypiperidin-1-yl)-1,1-difluoro-2-oxoethyl)-N-(4-fluoro-3-methylphenyl)benzamide]	< 5	> 30
Cc1cc(NC(=O)c2ccc(Cl)c(C(F)(F)C(=O)N3CC[C@H](O)[C@H](O)C3)c2)ccc1F [Example 58, 4-chloro-3-(2-((3R,4S)-3,4-dihydroxypiperidin-1-yl)-1,1-difluoro-2-oxoethyl)-N-(4-fluoro-3-methylphenyl)benzamide]	< 5	> 30
Cc1cc(NC(=O)c2csc(C(F)(F)C(=O)N3CCCC3)c2)ccc1F [Example 59, 5-(1,1-difluoro-2-oxo-2-(pyrrolidin-1-yl)ethyl)-N-(4-fluoro-3-methylphenyl)thiophene-3-carboxamide]	< 5	> 30
